Assays:
Format in all cases: cell-based
IL-8 = experiment: Cytokine suppression assay, anti-CD3/anti-CD28 (Dynabead)-stimulated PBMC: IL-8 release; conditions: 10 μg/mL; anti-CD3/anti-CD28-stimulated human PBMC; 20 h
Text: (§1) PBMCs from four healthy donors were isolated from buffy coats using Lymphoprep™ density gradient medium ([sequence] Technologies, Vancouver, Canada), according to the manufacturer's instructions. Isolated cells were cryopreserved in 90% heat-inactivated foetal calf serum (FCS) (Bovogen Biologicals) with 10% dimethyl sulfoxide (DMSO; Sigma-Aldrich, St. Louis, MO, USA) using vapour phase nitrogen until required. On the day of the experiment, PBMCs were thawed and removed from the freezing medium by washing with 9 mL pre-warmed culture medium and centrifugation at 300×g for 5 min. […] Thawed PBMCs were counted using a CASY cell counter (Roche Innovatis, Germany), and cell densities were adjusted to seed 100,000 cells/well into 96-well plates in a final volume of 100 μL culture medium.
(§2) For our cytokine suppression assays, inflammatory cytokines (IFN-γ, IL-17A, IL-8, and TNF) were induced in two ways. […] On the day of the experiment, cytokine concentrations were determined using a standard LEGENDplex™ human inflammation panel 1 (BioLegend®), LSRFortessa (BD), and LEGENDplex™ software (version 2022-02-10, Qognit, Inc.).

IFN-γ [1] = experiment: Cytokine suppression assay, P/I-stimulated PBMC: IFN-γ release; conditions: 10 μg/mL; P/I-stimulated human PBMC; 20 h treatment; relative to stimulated control
Text: (§3) PBMCs from four healthy donors were isolated from buffy coats using Lymphoprep™ density gradient medium ([sequence] Technologies, Vancouver, Canada), according to the manufacturer's instructions. Isolated cells were cryopreserved in 90% heat-inactivated foetal calf serum (FCS) (Bovogen Biologicals) with 10% dimethyl sulfoxide (DMSO; Sigma-Aldrich, St. Louis, MO, USA) using vapour phase nitrogen until required. On the day of the experiment, PBMCs were thawed and removed from the freezing medium by washing with 9 mL pre-warmed culture medium and centrifugation at 300×g for 5 min. An R10 culture medium of RPMI-1640 media without L-glutamine (Gibco Thermo Fisher Scientific, Waltham, MA, USA), supplemented with 10% heat-inactivated foetal bovine serum (FBS; Bovogen Biologicals, Christchurch, New Zealand), 10,000 units/mL of penicillin+10,000 μg/mL of streptomycin (Thermo Fisher Scientific), and 1× GlutaMAX (Thermo Fisher Scientific) was used for all experiments. […] After incubation, the enzyme was removed by two additional washes with R10. Thawed PBMCs were counted using a CASY cell counter (Roche Innovatis, Germany), and cell densities were adjusted to seed 100,000 cells/well into 96-well plates in a final volume of 100 μL culture medium.
(§4) For our cytokine suppression assays, inflammatory cytokines (IFN-γ, IL-17A, IL-8, and TNF) were induced in two ways. First, the PBMCs from three donors were activated with a cell stimulation cocktail of 50 ng/mL phorbol 12-myristate 13-acetate and 1 μg/mL ionomycin (P/I; eBioscience). P/1-stimulated cells were treated with 10 μg/mL of U. metrosideros compounds, PCE, CsA (Sigma-Aldrich), or remained untreated. Second, the PBMCs from four donors were cultured in the presence of Dynabeads Human T-Activator CD3/CD28 (Gibco) at a cell-to-bead ratio of 1:1. […] On the day of the experiment, cytokine concentrations were determined using a standard LEGENDplex™ human inflammation panel 1 (BioLegend®), LSRFortessa (BD), and LEGENDplex™ software (version 2022-02-10, Qognit, Inc.).

IL-17A [2] = experiment: Cytokine suppression assay, P/I-stimulated PBMC: IL-17A release; conditions: 10 μg/mL; P/I-stimulated human PBMC; 20 h treatment; relative to stimulated control
Text: as §1, §2

IFN-γ [3] = experiment: Cytokine suppression assay, anti-CD3/anti-CD28 (Dynabead)-stimulated PBMC: IFN-γ release; conditions: 10 μg/mL; anti-CD3/anti-CD28-stimulated human PBMC; 20 h
Text: as §1, §2

IL-17A [4] = experiment: Cytokine suppression assay, anti-CD3/anti-CD28 (Dynabead)-stimulated PBMC: IL-17A release; conditions: 10 μg/mL; anti-CD3/anti-CD28-stimulated human PBMC; 20 h
Text: as §3, §4

Compound | inhibition of IL-8 release (IL-8) | suppression of IFN-γ secretion (IFN-γ [1]) | reduction of IL-17A levels (IL-17A [2]) | suppression of Dynabead-induced IFN-γ secretion (IFN-γ [3]) | suppression of Dynabead-induced IL-17A secretion (IL-17A [4])
CC1=CC[C@@H](C(C)(C)O[C@@H]2O[C@H](COC(=O)c3cc(O)c(O)c(O)c3)[C@@H](O)[C@H](O)[C@H]2O)CC1 [Compound 5, (4S)-α-terpineol 8-O-β-D-(6-O-galloyl)glucopyranoside] | 24.3% | 79.6% | 60.9% | 59.3% | 53.7%
CC1=CC(=O)CC(C)(C)[C@@]1(O)/C=C/[C@@H](C)O[C@@H]1O[C@H](CO)[C@@H](O)[C@H](O)[C@H]1O [Compound 3, (6S,9R)-roseoside] | – | 64.4% | – | – | 38.2%
galloyl-lawsoniaside A [Compound 4] | 40.5% | 95.3% | 79.1% | 78.5% | 80.9%
